Data: the NIST ThermoML archive (doi:10.1007/s10765-006-0119-1)

Details: 101.33 kPa, Liquid, Oscillating Cup

O=[N+]([O-])[O-].[Na+] [sodium nitrate]
Details | viscosity [mPa·s]
590.3 K | 2.854
599.3 K | 2.74
600 K | 2.658
600.3 K | 2.638
613.2 K | 2.437
640.9 K | 2.155
653.6 K | 2.05
673.2 K | 1.811
676.8 K | 1.768
691.9 K | 1.719
709.7 K | 1.627
714.6 K | 1.537
732.4 K | 1.564
752.1 K | 1.43
